Experimental data from ChEMBL document CHEMBL1201862, “PubChem BioAssay data set” (2004).
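Five compound concentrations were applied to cells in 96-well plates for 48 hours; endpoints were derived by simple linear interpolation of the resulting dose-response curve. At the GI50, growth is halved.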 Active and inactive are the calls of the source. Cut-off read from the data, not from the text of the source: active = GI50 up to about 1.1 µM and inactive = higher.

Legend:
Test in all cases: inhibition of tumour cell growth, NCI panel, 48 h
COLO 205 = tested on: COLO 205
NCI-H226 = tested on: NCI-H226
OVCAR-4 = tested on: OVCAR-4
KM12 = tested on: KM12
SN12C = tested on: SN12C
DMS-114 = tested on: DMS-114
SF-268 = tested on: SF-268
SK-MEL-5 = tested on: SK-MEL-5
HT-29 = tested on: HT-29
DMS-273 = tested on: DMS-273
RXF 393 = tested on: RXF 393
SNB-75 = tested on: SNB-75
SW-620 = tested on: SW-620
LXFL 529 = tested on: LXFL 529
XF498 = tested on: XF498
A498 = tested on: A498
HL-60 = tested on: HL-60
NCI-H23 = tested on: NCI-H23
A549 = tested on: A549
SF-295 = tested on: SF-295
U-251 = tested on: U-251
Malme-3M = tested on: Malme-3M
ACHN = tested on: ACHN
CAKI-1 = tested on: CAKI-1
RXF 631 = tested on: RXF 631
HCT-15 = tested on: HCT-15
HOP-92 = tested on: HOP-92
LOX IMVI = tested on: LOX IMVI
SNB-78 = tested on: SNB-78
TK-10 = tested on: TK-10
SR = tested on: SR
HCC 2998 = tested on: HCC 2998
SK-OV-3 = tested on: SK-OV-3
NCI-H460 = tested on: NCI-H460
NCI-H522 = tested on: NCI-H522
OVCAR-5 = tested on: OVCAR-5
MOLT-4 = tested on: MOLT-4
SK-MEL-28 = tested on: SK-MEL-28
HCT-116 = tested on: HCT-116
CCRF-CEM = tested on: CCRF-CEM
RPMI-8226 = tested on: RPMI-8226
DLD-1 = tested on: DLD-1
HOP-18 = tested on: HOP-18
UACC-257 = tested on: UACC-257
SK-MEL-2 = tested on: SK-MEL-2
SNB-19 = tested on: SNB-19
OVCAR-3 = tested on: OVCAR-3
M14 = tested on: M14
HOP-62 = tested on: HOP-62
KM-20L2 = tested on: KM-20L2
UO-31 = tested on: UO-31
SF-539 = tested on: SF-539
EKVX = tested on: EKVX
OVCAR-8 = tested on: OVCAR-8
K562 = tested on: K562
M19-MEL = tested on: M19-MEL
IGROV-1 = tested on: IGROV-1
786-0 = tested on: 786-0
UACC-62 = tested on: UACC-62

Measured: GI50

CN1NC(c2ccccc2)=C(C#N)C(=O)CC1c1ccc(F)cc1 (stereo not given)
> 100 µM: HCT-15
inactive: COLO 205 > 100 µM | NCI-H226 > 100 µM | OVCAR-4 > 100 µM | KM12 > 100 µM | SN12C > 100 µM | DMS-114 > 100 µM | SF-268 > 100 µM | SK-MEL-5 > 100 µM | HT-29 > 100 µM | DMS-273 > 100 µM | RXF 393 > 100 µM | SNB-75 41.3 µM | SW-620 > 100 µM | LXFL 529 > 100 µM | XF498 > 100 µM | A498 > 100 µM | HL-60 > 100 µM | NCI-H23 > 100 µM | A549 > 100 µM | SF-295 > 100 µM | U-251 > 100 µM | Malme-3M > 100 µM | ACHN > 100 µM | CAKI-1 > 100 µM | RXF 631 > 100 µM | HOP-92 > 100 µM | LOX IMVI > 100 µM | SNB-78 > 100 µM | TK-10 > 100 µM | SR > 100 µM | HCC 2998 > 100 µM | SK-OV-3 > 100 µM | NCI-H460 > 100 µM | NCI-H522 62.4 µM | OVCAR-5 > 100 µM | MOLT-4 > 100 µM | SK-MEL-28 > 100 µM | HCT-116 > 100 µM | CCRF-CEM > 100 µM | RPMI-8226 > 100 µM | DLD-1 > 100 µM | HOP-18 > 100 µM | UACC-257 > 100 µM | SK-MEL-2 > 100 µM | SNB-19 > 100 µM

CCCC(O)[C@@H](O)c1ccc2c(c1O)C(=O)c1c(OC)cccc1C2=O (stereo not given in full)
26.2 µM: HCT-15
inactive: COLO 205 20.9 µM | NCI-H226 27.3 µM | OVCAR-3 34.8 µM | OVCAR-4 25 µM | M14 31.6 µM | KM12 35.6 µM | SN12C 40.4 µM | DMS-114 26.2 µM | SF-268 57.7 µM | SK-MEL-5 16.8 µM | HT-29 38.9 µM | DMS-273 35.5 µM | SNB-75 47 µM | SW-620 63.2 µM | XF498 20.2 µM | HOP-62 55.2 µM | A498 34.5 µM | KM-20L2 50.9 µM | HL-60 18.4 µM | NCI-H23 36.6 µM | A549 44 µM | UO-31 28.2 µM | SF-295 33 µM | U-251 27.2 µM | Malme-3M 40.7 µM | SF-539 24.2 µM | ACHN 34.4 µM | CAKI-1 27.8 µM | RXF 631 28.2 µM | EKVX 55.1 µM | HOP-92 58.2 µM | LOX IMVI 27.4 µM | SNB-78 36.6 µM | TK-10 51.4 µM | SR 26.4 µM | OVCAR-8 30.1 µM | HCC 2998 19.4 µM | K562 34.3 µM | SK-OV-3 24.1 µM | NCI-H460 29 µM | M19-MEL 24.2 µM | NCI-H522 16.1 µM | OVCAR-5 54.7 µM | MOLT-4 21.1 µM | SK-MEL-28 66.4 µM | HCT-116 38.5 µM | IGROV-1 30.7 µM | CCRF-CEM 31.3 µM | RPMI-8226 5.73 µM | DLD-1 36.9 µM | 786-0 37.5 µM | HOP-18 50.8 µM | UACC-62 25.9 µM | UACC-257 29.9 µM | SK-MEL-2 46.8 µM | SNB-19 80.4 µM

CC(=O)OCCOCNC(=S)N/N=C/c1cc(Br)cs1
inactive: COLO 205 > 100 µM | NCI-H226 > 100 µM | OVCAR-3 > 100 µM | OVCAR-4 > 100 µM | M14 > 100 µM | KM12 > 100 µM | SN12C > 100 µM | DMS-114 > 100 µM | SF-268 > 100 µM | SK-MEL-5 > 100 µM | HT-29 > 100 µM | DMS-273 > 100 µM | RXF 393 > 100 µM | SNB-75 > 100 µM | SW-620 > 100 µM | LXFL 529 > 100 µM | XF498 > 100 µM | HOP-62 > 100 µM | A498 > 100 µM | KM-20L2 > 100 µM | HL-60 > 100 µM | NCI-H23 > 100 µM | A549 > 100 µM | UO-31 > 100 µM | SF-295 > 100 µM | U-251 > 100 µM | Malme-3M > 100 µM | SF-539 > 100 µM | ACHN > 100 µM | RXF 631 > 100 µM | EKVX > 100 µM | LOX IMVI > 100 µM | SNB-78 > 100 µM | TK-10 > 100 µM | SR > 100 µM | OVCAR-8 > 100 µM | HCC 2998 > 100 µM | K562 > 100 µM | SK-OV-3 > 100 µM | NCI-H460 > 100 µM | M19-MEL > 100 µM | NCI-H522 > 100 µM | OVCAR-5 > 100 µM | MOLT-4 > 100 µM | SK-MEL-28 > 100 µM | HCT-116 > 100 µM | IGROV-1 > 100 µM | CCRF-CEM > 100 µM | RPMI-8226 > 100 µM | DLD-1 > 100 µM | 786-0 > 100 µM | HOP-18 > 100 µM | UACC-62 > 100 µM | UACC-257 > 100 µM | SK-MEL-2 > 100 µM | SNB-19 > 100 µM
> 100 µM: HCT-15
